Source: PubChem BioAssay AID1745844 (Carcinogenic Potency Database (CPDB), 2022)
Where “and” joins values, the source holds several entries; their conditions need not be identical. Equal values may be shown once. Calls of active or inactive are those of the source. The rule behind the calls is not given here.

Tested on: rodent lifetime carcinogenesis bioassay, tumor incidence TD50
Experiment: chronic cancer bioassays in animals – CPDB, compiled studies (AID 1745844)
[1] = mouse, strain ICI, males, by gavage, site: liver, lesion: several types, types named in the paper, dosed 80 weeks, study length 98 weeks
[2] = mouse, strain ICI, males, by gavage, site: lung, lesion: several types, types named in the paper, dosed 80 weeks, study length 98 weeks

ClC(Cl)Cl
TD50 (dog, strain Beagle, females, in feed, site: any site (literature study), lesion: several types, types named in the paper, dosed 376 weeks, study length 397 weeks): 10 mg/kg/day (inactive)
carcinogen call (dog, strain Beagle, females, in feed, site: liver, lesion: one or several types, types not named, dosed 376 weeks, study length 397 weeks): negative (inactive)
TD50 (dog, strain Beagle, males, in feed, site: any site (literature study), lesion: several types, types named in the paper, dosed 376 weeks, study length 397 weeks): 13.3 mg/kg/day (inactive)
carcinogen call (dog, strain Beagle, males, in feed, site: liver, lesion: one or several types, types not named, dosed 376 weeks, study length 397 weeks): negative (inactive)
TD50 (mouse, strain B6C3F1, females, by gavage, site: any site (literature study), lesion: several types, types named in the paper, dosed 78 weeks, study length 92 weeks): 54.1 mg/kg/day
TD50 (mouse, strain B6C3F1, females, by gavage, site: liver, lesion: hepatocellular adenoma + hepatocellular carcinoma + neoplastic nodule, dosed 78 weeks, study length 92 weeks): 48 mg/kg/day
TD50 (mouse, strain B6C3F1, females, by gavage, site: liver, lesion: hepatocellular carcinoma, dosed 78 weeks, study length 92 weeks): 48 mg/kg/day
carcinogen call (mouse, strain B6C3F1, females, in drinking water, site: any site (literature study), lesion: several types, types named in the paper, dosed 104 weeks, study length 104 weeks): negative (inactive)
carcinogen call (mouse, strain B6C3F1, females, in drinking water, site: liver, lesion: hepatocellular adenoma, dosed 104 weeks, study length 104 weeks): negative (inactive)
TD50 (mouse, strain B6C3F1, females, in drinking water, site: liver, lesion: hepatocellular carcinoma, dosed 104 weeks, study length 104 weeks): 20200 mg/kg/day (inactive)
carcinogen call (mouse, strain B6C3F1, females, in drinking water, site: liver, lesion: several types, types named in the paper, dosed 104 weeks, study length 104 weeks): negative (inactive)
TD50 (mouse, strain B6C3F1, males, by gavage, site: any site (literature study), lesion: several types, types named in the paper, dosed 78 weeks, study length 92 weeks): 71.1 mg/kg/day
TD50 (mouse, strain B6C3F1, males, by gavage, site: liver, lesion: hepatocellular adenoma + hepatocellular carcinoma + neoplastic nodule, dosed 78 weeks, study length 92 weeks): 56.2 mg/kg/day
TD50 (mouse, strain B6C3F1, males, by gavage, site: liver, lesion: hepatocellular carcinoma, dosed 78 weeks, study length 92 weeks): 56.2 mg/kg/day
carcinogen call (mouse, strain C57BL, males, by gavage, site: any site (literature study), lesion: several types, types named in the paper, dosed 80 weeks, study length 104 weeks): negative (inactive)
carcinogen call (mouse, strain C57BL, males, by gavage, site: liver, lesion: one or several types, types not named, dosed 80 weeks, study length 104 weeks): negative (inactive)
TD50 (mouse, strain C57BL, males, by gavage, site: lung, lesion: several types, types named in the paper, dosed 80 weeks, study length 104 weeks): 728 mg/kg/day (inactive)
carcinogen call (mouse, strain CBA, males, by gavage, site: any site (literature study), lesion: several types, types named in the paper, dosed 80 weeks, study length 104 weeks): negative (inactive)
carcinogen call (mouse, strain CBA, males, by gavage, site: liver, lesion: several types, types named in the paper, dosed 80 weeks, study length 104 weeks): negative (inactive)
carcinogen call (mouse, strain CBA, males, by gavage, site: lung, lesion: several types, types named in the paper, dosed 80 weeks, study length 104 weeks): negative (inactive)
TD50 (mouse, strain CF-1, males, by gavage, site: any site (literature study), lesion: several types, types named in the paper, dosed 80 weeks, study length 93 weeks): 140 mg/kg/day (inactive)
TD50 (mouse, strain CF-1, males, by gavage, site: liver, lesion: one or several types, types not named, dosed 80 weeks, study length 93 weeks): 1430 mg/kg/day (inactive)
TD50 (mouse, strain CF-1, males, by gavage, site: lung, lesion: several types, types named in the paper, dosed 80 weeks, study length 93 weeks): 376 mg/kg/day (inactive)
TD50 (mouse, strain CFLP, males, by gavage, site: kidney, lesion: several types, types named in the paper, dosed 80 weeks, study length 104 weeks): 153 mg/kg/day
carcinogen call (mouse, strain CFLP, males, by gavage, site: liver, lesion: one or several types, types not named, dosed 80 weeks, study length 104 weeks): negative (inactive)
TD50 (mouse, strain CFLP, males, by gavage, site: lung, lesion: one or several types, types not named, dosed 80 weeks, study length 104 weeks): 4350 mg/kg/day (inactive)
TD50 (mouse, strain Crj:BDF1, females, inhaled, site: liver, lesion: hepatocellular carcinoma, dosed 104 weeks, study length 104 weeks): 2670 mg/kg/day
TD50 (mouse, strain Crj:BDF1, females, inhaled, site: liver, lesion: several types, types named in the paper, dosed 104 weeks, study length 104 weeks): 909 mg/kg/day
TD50 (mouse, strain Crj:BDF1, females, inhaled, site: pituitary gland, lesion: adenoma, dosed 104 weeks, study length 104 weeks): 2070 mg/kg/day
TD50 (mouse, strain Crj:BDF1, males, inhaled, site: kidney, lesion: renal-cell adenoma, dosed 104 weeks, study length 104 weeks): 1250 mg/kg/day
TD50 (mouse, strain Crj:BDF1, males, inhaled, site: kidney, lesion: renal-cell carcinoma, dosed 104 weeks, study length 104 weeks): 287 mg/kg/day
TD50 (mouse, strain Crj:BDF1, males, inhaled, site: kidney, lesion: several types, types named in the paper, dosed 104 weeks, study length 104 weeks): 226 mg/kg/day
TD50 (mouse, strain Crj:BDF1, males, inhaled, site: liver, lesion: several types, types named in the paper, dosed 104 weeks, study length 104 weeks): 402 mg/kg/day
TD50 (mouse, strain Crj:BDF1, males, inhaled, site: lung, lesion: alveolar/bronchiolar carcinoma, dosed 104 weeks, study length 104 weeks): 3530 mg/kg/day
carcinogen call (mouse, strain ICI, females, by gavage, site: any site (literature study), lesion: several types, types named in the paper, dosed 80 weeks, study length 96 weeks): negative (inactive)
carcinogen call (mouse, strain ICI, females, by gavage, site: liver, lesion: one or several types, types not named, dosed 80 weeks, study length 96 weeks): negative (inactive)
TD50 (mouse, strain ICI, females, by gavage, site: lung, lesion: one or several types, types not named, dosed 80 weeks, study length 96 weeks): 316 mg/kg/day (inactive)
TD50 (mouse, strain ICI, males, by gavage, site: any site (literature study), lesion: several types, types named in the paper, dosed 80 weeks, study length 96 weeks): 45.4 mg/kg/day
TD50 (mouse, strain ICI, males, by gavage, site: any site (literature study), lesion: several types, types named in the paper, dosed 80 weeks, study length 98 weeks): 88.5 mg/kg/day
TD50 (mouse, strain ICI, males, by gavage, site: kidney, lesion: several types, types named in the paper, dosed 80 weeks, study length 96 weeks): 139 mg/kg/day
TD50 (mouse, strain ICI, males, by gavage, site: kidney, lesion: several types, types named in the paper, dosed 80 weeks, study length 98 weeks): 278 mg/kg/day and 95.5 mg/kg/day
TD50 (mouse, strain ICI, males, by gavage, site: liver, lesion: one or several types, types not named, dosed 80 weeks, study length 96 weeks): 324 mg/kg/day (inactive)
TD50 [1]: 437 mg/kg/day (inactive)
carcinogen call [1]: negative (inactive)
TD50 (mouse, strain ICI, males, by gavage, site: lung, lesion: one or several types, types not named, dosed 80 weeks, study length 96 weeks): 9830 mg/kg/day (inactive)
TD50 [2]: 336 mg/kg/day (inactive)
carcinogen call [2]: negative (inactive)
TD50 (rat, strain F344/DuCrj, females, inhaled, site: kidney, lesion: renal-cell adenoma, dosed 104 weeks, study length 104 weeks): 1590 mg/kg/day (inactive)
TD50 (rat, strain F344/DuCrj, females, inhaled, site: kidney, lesion: transitional-cell carcinoma, dosed 104 weeks, study length 104 weeks): 1590 mg/kg/day (inactive)
TD50 (rat, strain F344/DuCrj, females, inhaled, site: liver, lesion: hepatocellular adenoma, dosed 104 weeks, study length 104 weeks): 2180 mg/kg/day (inactive)
carcinogen call (rat, strain F344/DuCrj, males, inhaled, site: kidney, lesion: one or several types, types not named, dosed 104 weeks, study length 104 weeks): negative (inactive)
carcinogen call (rat, strain F344/DuCrj, males, inhaled, site: liver, lesion: several types, types named in the paper, dosed 104 weeks, study length 104 weeks): negative (inactive)
TD50 (rat, strain Osborne-Mendel, females, by gavage, site: any site (literature study), lesion: several types, types named in the paper, dosed 78 weeks, study length 110 weeks): 68.2 mg/kg/day
TD50 (rat, strain Osborne-Mendel, females, by gavage, site: liver, lesion: hepatocellular adenoma + hepatocellular carcinoma + neoplastic nodule, dosed 78 weeks, study length 110 weeks): 1130 mg/kg/day
TD50 (rat, strain Osborne-Mendel, females, by gavage, site: thyroid gland, lesion: c-cell adenoma + c-cell carcinoma + follicular-cell adenoma + follicular-cell carcinoma, dosed 78 weeks, study length 110 weeks): 126 mg/kg/day (inactive)
TD50 (rat, strain Osborne-Mendel, males, by gavage, site: any site (literature study), lesion: several types, types named in the paper, dosed 78 weeks, study length 110 weeks): 194 mg/kg/day
TD50 (rat, strain Osborne-Mendel, males, by gavage, site: kidney, lesion: tubular-cell adenoma + tubular-cell adenocarcinoma, dosed 78 weeks, study length 110 weeks): 119 mg/kg/day
TD50 (rat, strain Osborne-Mendel, males, by gavage, site: liver, lesion: hepatocellular adenoma + hepatocellular carcinoma + neoplastic nodule, dosed 78 weeks, study length 110 weeks): 455 mg/kg/day
TD50 (rat, strain Osborne-Mendel, males, in drinking water, site: all sites, lesion: neurofibroma, dosed 104 weeks, study length 104 weeks): 2200 mg/kg/day
TD50 (rat, strain Osborne-Mendel, males, in drinking water, site: all sites, lesion: several types, types named in the paper, dosed 104 weeks, study length 104 weeks): 1360 mg/kg/day
TD50 (rat, strain Osborne-Mendel, males, in drinking water, site: any site (literature study), lesion: several types, types named in the paper, dosed 104 weeks, study length 104 weeks): 1970 mg/kg/day
TD50 (rat, strain Osborne-Mendel, males, in drinking water, site: kidney, lesion: several types, types named in the paper, dosed 104 weeks, study length 104 weeks): 519 mg/kg/day and 606 mg/kg/day
TD50 (rat, strain Osborne-Mendel, males, in drinking water, site: kidney, lesion: tubular-cell adenoma, dosed 104 weeks, study length 104 weeks): 972 mg/kg/day
TD50 (rat, strain Sprague-Dawley, females, by gavage, site: any site (literature study), lesion: malignant tumor, dosed 80 weeks, study length 95 weeks): 276 mg/kg/day (inactive)
TD50 (rat, strain Sprague-Dawley, females, by gavage, site: any site (literature study), lesion: several types, types named in the paper, dosed 80 weeks, study length 95 weeks): 78.3 mg/kg/day (inactive)
TD50 (rat, strain Sprague-Dawley, females, by gavage, site: liver, lesion: cystadenoma, dosed 80 weeks, study length 95 weeks): 1200 mg/kg/day (inactive)
carcinogen call (rat, strain Sprague-Dawley, males, by gavage, site: any site (literature study), lesion: malignant tumor, dosed 80 weeks, study length 95 weeks): negative (inactive)
carcinogen call (rat, strain Sprague-Dawley, males, by gavage, site: any site (literature study), lesion: several types, types named in the paper, dosed 80 weeks, study length 95 weeks): negative (inactive)
carcinogen call (rat, strain Sprague-Dawley, males, by gavage, site: liver, lesion: one or several types, types not named, dosed 80 weeks, study length 95 weeks): negative (inactive)
TD50 (rat, strain Wistar, females, in drinking water, site: liver, lesion: hepatocellular carcinoma, dosed 187 weeks, study length 187 weeks): 10000 mg/kg/day
TD50 (rat, strain Wistar, females, in drinking water, site: liver, lesion: neoplastic nodule, dosed 187 weeks, study length 187 weeks): 883 mg/kg/day
TD50 (rat, strain Wistar, males, in drinking water, site: kidney, lesion: adenocarcinoma, dosed 172 weeks, study length 172 weeks): 5300 mg/kg/day
TD50 (rat, strain Wistar, males, in drinking water, site: kidney, lesion: adenoma, dosed 172 weeks, study length 172 weeks): 5300 mg/kg/day
TD50 (rat, strain Wistar, males, in drinking water, site: liver, lesion: hepatocellular carcinoma, dosed 172 weeks, study length 172 weeks): 5300 mg/kg/day
